Measurements published in PMC8698454, “Anti-Colonization Effect of Au Surfaces with Self-Assembled Molecular Monolayers Functionalized with Antimicrobial Peptides on S. epidermidis” (Antibiotics, 2021).
Where two headings read alike, the source gives them in different places.

Tests used:
[1] = system: Staphylococcus epidermidis 1457; format: cell-based; conditions: for MIC S. epidermidis 1457: Table S3
Summary of the method: (§1)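 MICs by broth microdilution following CLSI for one peptide set and EUCAST broth dilution for the other. Tested at 0.5–256 μg/mL final against reference strains in biological triplicate. MIC taken as the lowest concentration giving no visible growth.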

[2] = system: Escherichia coli ATCC 25922; format: cell-based; conditions: for MIC E. coli ATCC 25922: Table S3
Summary of the method: as §1

[3] = system: Pseudomonas aeruginosa ATCC 27853; format: cell-based; conditions: for MIC P. aeruginosa ATCC 27853: Table S3
Summary of the method: as §1

[4] = system: Staphylococcus aureus ATCC 9144; format: cell-based; conditions: for MIC S. aureus ATCC 9144: Table S3
Summary of the method: as §1

Gram-positive bacteria = format: cell-based, S. aureus and S. epidermidis; conditions: text summary over S. aureus ATCC 9144 and S. epidermidis 1457
Method: (§2) The minimal inhibitory concentration (MIC) of peptides 1a, 1b, 2a, and 2b were determined by broth microdilution according to the Clinical Laboratory Standard Institute (CLSI) method […]-A9. The MICs of the peptides 1c, 1d, 2c, and 2d were determined by broth dilution according to the European Committee for Antimicrobial Susceptibility Testing (EUCAST). Final concentrations of 0.5-256 μg/mL were tested against a panel of reference bacteria-S. aureus (ATCC 9144), S. epidermidis (1457), E. coli (ATCC 25922), and P. aeruginosa (ATCC 27853). Each strain was tested in biological triplicate. The MIC values were defined as the lowest concentration of the peptides resulting in no visual growth.

Gram-negative bacteria = format: cell-based, E. coli and P. aeruginosa; conditions: text summary over E. coli ATCC 25922 and P. aeruginosa ATCC 27853
Method: as §2

[5] = technical replicate 1, biological replicate BR1
[6] = technical replicate 1, biological replicate BR2
[7] = technical replicate 1, biological replicate BR3
[8] = technical replicate 2, biological replicate BR1
[9] = technical replicate 2, biological replicate BR2
[10] = technical replicate 2, biological replicate BR3
[11] = technical replicate 3, biological replicate BR1
[12] = technical replicate 3, biological replicate BR2
[13] = technical replicate 3, biological replicate BR3

N3-PEG200-RBBRF [2a, azidopeptide N3-PEG200-RBBRF, B = biphenylalanine, amidated C-terminus]
MIC S. epidermidis 1457 [1, 5]: 4 µg/mL | MIC S. epidermidis 1457 [1, 6]: 8 µg/mL | MIC S. epidermidis 1457 [1, 7]: 8 µg/mL | MIC S. epidermidis 1457 [1, 8]: 4 µg/mL | MIC S. epidermidis 1457 [1, 9]: 8 µg/mL | MIC S. epidermidis 1457 [1, 10]: 8 µg/mL | MIC S. epidermidis 1457 [1, 11]: 4 µg/mL | MIC S. epidermidis 1457 [1, 12]: 8 µg/mL | MIC S. epidermidis 1457 [1, 13]: 8 µg/mL | Antimicrobial Activity (MIC) S. epidermidis ([1]; strain 1457, broth microdilution CLSI M07-A9 (1a,1b,2a,2b) or broth dilution EUCAST (1c,1d,2c,2d), 0.5-256 µg/mL tested, biological triplicate, no visual growth): 8 µg/mL | Antimicrobial Activity (MIC) E. coli ([2]; ATCC 25922, broth microdilution CLSI M07-A9 (1a,1b,2a,2b) or broth dilution EUCAST (1c,1d,2c,2d), 0.5-256 µg/mL tested, biological triplicate, no visual growth): 64 µg/mL | MIC E. coli ATCC 25922 [2, 5]: 64 µg/mL | MIC E. coli ATCC 25922 [2, 6]: 64 µg/mL | MIC E. coli ATCC 25922 [2, 7]: 64 µg/mL | MIC E. coli ATCC 25922 [2, 8]: 64 µg/mL | MIC E. coli ATCC 25922 [2, 9]: 64 µg/mL | MIC E. coli ATCC 25922 [2, 10]: 64 µg/mL | MIC E. coli ATCC 25922 [2, 11]: 64 µg/mL | MIC E. coli ATCC 25922 [2, 12]: 64 µg/mL | MIC E. coli ATCC 25922 [2, 13]: 64 µg/mL | Antimicrobial Activity (MIC) P. aeruginosa ([3]; ATCC 27853, broth microdilution CLSI M07-A9 (1a,1b,2a,2b) or broth dilution EUCAST (1c,1d,2c,2d), 0.5-256 µg/mL tested, biological triplicate, no visual growth): 64 µg/mL | MIC P. aeruginosa ATCC 27853 [3, 5]: 64 µg/mL | MIC P. aeruginosa ATCC 27853 [3, 6]: 64 µg/mL | MIC P. aeruginosa ATCC 27853 [3, 7]: 64 µg/mL | MIC P. aeruginosa ATCC 27853 [3, 8]: 64 µg/mL | MIC P. aeruginosa ATCC 27853 [3, 9]: 64 µg/mL | MIC P. aeruginosa ATCC 27853 [3, 10]: 64 µg/mL | MIC P. aeruginosa ATCC 27853 [3, 11]: 64 µg/mL | MIC P. aeruginosa ATCC 27853 [3, 12]: 64 µg/mL | MIC P. aeruginosa ATCC 27853 [3, 13]: 64 µg/mL | Antimicrobial Activity (MIC) S. aureus ([4]; ATCC 9144, broth microdilution CLSI M07-A9 (1a,1b,2a,2b) or broth dilution EUCAST (1c,1d,2c,2d), 0.5-256 µg/mL tested, biological triplicate, lowest concentration with no visual growth): 8 µg/mL | MIC S. aureus ATCC 9144 [4, 5]: 8 µg/mL | MIC S. aureus ATCC 9144 [4, 6]: 8 µg/mL | MIC S. aureus ATCC 9144 [4, 7]: 8 µg/mL | MIC S. aureus ATCC 9144 [4, 8]: 8 µg/mL | MIC S. aureus ATCC 9144 [4, 9]: 8 µg/mL | MIC S. aureus ATCC 9144 [4, 10]: 8 µg/mL | MIC S. aureus ATCC 9144 [4, 11]: 8 µg/mL | MIC S. aureus ATCC 9144 [4, 12]: 8 µg/mL | MIC S. aureus ATCC 9144 [4, 13]: 8 µg/mL | MIC against Gram-positive bacteria (Gram-positive bacteria): 8 µg/mL | MIC against Gram-negative bacteria (Gram-negative bacteria): 64 µg/mL
